Results taken from US9404933B2, “Methods for determining patient response to anti-platelet aggregation therapy” (INVITROX, INC., priority 2011, dated 2016).
Read-outs that look alike come from different tables or passages of the source.

Columns and labels:
human platelets = experiment: Focused light scattering size distribution of platelets and microparticles after activation; assay type: cell-based; conditions: normal resting human platelets versus activated; FIG. 8 / FIG. 9
Description: FIG. 8 is a chart showing the result of the activation of platelets using thrombin receptor activating peptide (TRAP), where platelets are enlarged when activated, and also give off microparticles (MPs).
FIG. 9 is a chart showing the result of the activation of platelets using a calcium ionophore, which destroys platelets, and also causes the platelets to give off microparticles (MPs). Treated and untreated platelet size distributions are shown. What is observed is as the number of platelets decreases, the number of MPs increases.
The ionophore basically destroys the platelet to produce many more MPs. Treated and untreated platelet size distributions are shown. What is observed is as the number of platelets decreases, the number of MPs increases.

[1] = test system: ADP-induced platelet aggregation; conditions: cited from earlier work; for inhibition of platelet aggregation: patients with ischaemic heart disease, measured at 4 min after addition of 10 μM ADP
[2] = in vivo; cited from earlier work
[3] = test system: P2Y12-dependent platelet function; conditions: added in vitro to blood from clopidogrel treated patients; cited from earlier work

CNc1ccc2oc(C[C@H]3O[C@@]4(CC[C@H]3C)O[C@H]([C@H](C)C(=O)c3ccc[nH]3)[C@H](C)C[C@H]4C)nc2c1C(=O)O [calcium ionophore]
microparticles (MPs) formed on activation of platelets (human platelets): many more MPs

COC(=O)[C@H](c1ccccc1Cl)N1CCc2sccc2C1 [Plavix, clopidogrel bisulfate]
delayed onset of action ([1]; loading dose of 300-600 mg): two to five
inhibition of platelet aggregation ([1]; 4 to 7 days treatment): approximately 60%

CC(=O)Oc1cc2c(s1)CCN(C(C(=O)C1CC1)c1ccccc1F)C2 (stereo not drawn) [Prasugrel, 2-acetoxy-5-[alpha-cyclopropylcarbonyl-2-fluorobenzyl]-4,5,6,7-tetrahydrothieno[3,2-c]pyridine]
inhibition of ADP-induced platelet aggregation ([1]; cross-over study, 60 mg loading dose, also in subjects who responded poorly to a standard loading dose of Clopidogrel): rapid and highgrade, irreversible inhibition

CSCCNc1nc(SCCC(F)(F)F)nc2c1ncn2[C@@H]1O[C@H](COP(=O)(O)OP(=O)(O)C(Cl)(Cl)P(=O)(O)O)[C@@H](O)[C@H]1O [cangrelor]
half-life [2]: 2.6 min
inhibition of P2Y12-dependent platelet function [3]: near complete inhibition
inhibition of platelet aggregation ([1]; infusion at 2 and 4 μg/mL/min): near complete inhibition
